{
  "source": "ChEMBL document CHEMBL1201862",
  "about": "“PubChem BioAssay data set” (2004)",
  "key": {"[1]": {"target": "Paired box protein Pax-8 (Homo sapiens, UniProt Q06710)", "sequence (Q06710 whole entry)": "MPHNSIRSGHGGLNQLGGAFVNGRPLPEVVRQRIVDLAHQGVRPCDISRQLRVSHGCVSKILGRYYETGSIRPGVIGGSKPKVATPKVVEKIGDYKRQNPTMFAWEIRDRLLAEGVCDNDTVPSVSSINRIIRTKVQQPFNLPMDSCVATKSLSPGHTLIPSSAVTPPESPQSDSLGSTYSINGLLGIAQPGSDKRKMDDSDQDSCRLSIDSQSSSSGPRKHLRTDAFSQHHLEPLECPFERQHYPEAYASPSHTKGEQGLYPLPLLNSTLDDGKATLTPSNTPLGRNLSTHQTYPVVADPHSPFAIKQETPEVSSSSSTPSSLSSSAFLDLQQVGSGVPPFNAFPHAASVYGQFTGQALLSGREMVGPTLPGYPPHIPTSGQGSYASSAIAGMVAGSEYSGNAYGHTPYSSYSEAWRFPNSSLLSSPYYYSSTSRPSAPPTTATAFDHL", "experiment": "PAX8 transcriptional activity inhibition in RMG-I – RMG-I cells, luciferase, cherry-pick, dose response (AID 687027);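 further: luciferase reporter driven by Pax8 target thyroperoxidase promoter measured by SteadyGlo luminescence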", "type": "functional, cell-based"}, "[2]": {"experiment": "toxicity toward immortalized ovarian surface epithelium – cell-based, plate reader, dry powder samples, cytotoxicity control for PAX8 inhibitor project, dose response (AID 743045)", "type": "functional"}, "[3]": {"experiment": "CMV-driven luciferase expression suppression in HEK293 – cell-based, luminescence, dry powder, counter-screen for Pax8 inhibitor project, dose response (AID 743020)", "type": "functional"}, "[4]": {"experiment": "OVCAR-3 cell viability loss – plate reader, dry powder samples, PAX8 inhibitor project, dose response (AID 743044)", "type": "functional, cell-based"}, "[5]": {"experiment": "IGROV1 cell killing – plate reader, dry powder samples, PAX8 inhibitor project, dose response (AID 743043)", "type": "functional, cell-based", "details": "IGROV-1"}, "[6]": {"experiment": "OVCAR8 cell viability loss – plate reader, dry powder samples, PAX8 project, dose response (AID 743197)", "type": "functional, cell-based", "details": "OVCAR-8"}, "[7]": {"experiment": "inhibition of Env-driven cell fusion – HIV entry, plate reader, dry powder, dose response (AID 687023)", "type": "functional, cell-based"}, "[8]": {"experiment": "viability loss in CEM21 cells – cell-based, plate reader, dry powder, cytotoxicity control, dose response (AID 687026)", "type": "functional"}, "[9]": {"target": "NAD-dependent protein deacylase sirtuin-5, mitochondrial (Homo sapiens, UniProt Q9NXA8)", "sequence (Q9NXA8 whole entry)": "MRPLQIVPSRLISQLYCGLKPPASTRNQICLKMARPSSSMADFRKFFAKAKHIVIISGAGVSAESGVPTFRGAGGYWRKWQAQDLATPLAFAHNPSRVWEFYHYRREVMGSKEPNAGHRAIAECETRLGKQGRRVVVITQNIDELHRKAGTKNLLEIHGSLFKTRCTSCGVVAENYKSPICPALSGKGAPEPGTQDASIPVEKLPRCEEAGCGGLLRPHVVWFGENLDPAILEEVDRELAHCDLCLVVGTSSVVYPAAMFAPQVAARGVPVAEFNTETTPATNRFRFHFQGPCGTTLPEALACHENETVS", "experiment": "blockers of sirtuin-5 peptide desuccinylation – biochemical, fluorescence imaging, cherry-pick, set 6, dose response (AID 720597)"}, "[10]": {"target": "Protein disulfide-isomerase (Homo sapiens, UniProt P07237)", "sequence (P07237 whole entry)": "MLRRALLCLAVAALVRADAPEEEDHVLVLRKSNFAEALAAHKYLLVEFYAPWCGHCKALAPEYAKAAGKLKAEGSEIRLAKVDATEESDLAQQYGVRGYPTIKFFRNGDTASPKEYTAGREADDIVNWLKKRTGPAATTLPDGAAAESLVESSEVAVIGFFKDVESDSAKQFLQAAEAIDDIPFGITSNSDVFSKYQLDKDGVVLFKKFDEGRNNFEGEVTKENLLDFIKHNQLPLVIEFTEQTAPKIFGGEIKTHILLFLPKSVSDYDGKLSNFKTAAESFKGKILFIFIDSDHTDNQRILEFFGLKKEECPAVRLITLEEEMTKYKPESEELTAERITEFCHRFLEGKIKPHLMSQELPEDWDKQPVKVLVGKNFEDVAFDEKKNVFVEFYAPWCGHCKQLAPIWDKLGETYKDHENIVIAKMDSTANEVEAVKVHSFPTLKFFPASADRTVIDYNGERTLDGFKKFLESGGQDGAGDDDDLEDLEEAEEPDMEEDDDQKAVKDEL", "experiment": "inhibition of PDI-mediated insulin reduction – biochemical, turbidity, dry powder samples, set 2, confirmation (AID 652146)"}, "[11]": {"experiment": "A549 cell cytotoxicity, dose response, cytotoxicity control, plate reader, cherry-pick, antagonist series (AID 743412)", "type": "functional, cell-based"}, "[12]": {"experiment": "toxicity toward HepG2 liver cells – cell-based, plate reader, cherry-pick, antagonist series, cytotoxicity control, dose response (AID 743416)", "type": "functional"}, "[13]": {"experiment": "blockers of bursicon-stimulated LGR2 cAMP reporter – cell-based, HEK293, CRE-luciferase reporter, cherry pick, set 2, dose response (AID 743343);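 further: transfected cells were stimulated with diluted bursicon conditioned medium after compound addition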", "type": "functional"}, "[14]": {"experiment": "viability loss in HepG2 hepatoma cells – cell-based, cherry-picks, set 5, cytotoxicity control, dose response (AID 1053118)", "type": "functional"}, "[15]": {"experiment": "viability loss in HEK293 kidney cells – cell-based, cherry-picks, set 5, cytotoxicity control, dose response (AID 1053117)", "type": "functional"}, "[16]": {"experiment": "viability loss in A549 lung cancer cells – cell-based, cherry-picks, […], cytotoxicity control, dose response (AID 1053119)", "type": "functional"}, "[17]": {"experiment": "blockade of melanocortin 4 receptor signaling – cell-based, plate reader, cherry pick, counter-screen for LGR2 antagonist project, dose response (AID 743444);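 further: transfected HEK 293 cells stimulated with alpha-MSH peptide; potency of inhibitors of the alpha-MSH evoked signal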", "type": "functional"}, "[18]": {"experiment": "blockers of FN fibrillogenesis by fibroblasts – AH1F cells, Alexa488-FN fluorescence, cherry-picks, dose response (AID 1035475)", "type": "functional, cell-based"}, "[19]": {"experiment": "viability loss in HEK293 cells – cell-based, plate reader, cherry-picked samples, cytotoxicity control, dose response (AID 743446)", "type": "functional"}, "[20]": {"target": "Protein Wnt-3a (Mus musculus, UniProt P27467)", "sequence (P27467 whole entry)": "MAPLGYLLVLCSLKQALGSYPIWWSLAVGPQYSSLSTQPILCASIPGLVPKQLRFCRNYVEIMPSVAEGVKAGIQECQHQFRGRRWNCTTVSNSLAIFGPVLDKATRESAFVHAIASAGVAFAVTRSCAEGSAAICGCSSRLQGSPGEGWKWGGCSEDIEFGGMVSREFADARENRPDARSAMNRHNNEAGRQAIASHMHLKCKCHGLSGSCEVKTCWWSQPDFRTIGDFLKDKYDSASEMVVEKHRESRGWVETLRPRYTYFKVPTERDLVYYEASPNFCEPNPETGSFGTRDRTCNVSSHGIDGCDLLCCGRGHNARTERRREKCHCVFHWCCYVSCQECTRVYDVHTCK", "experiment": "SAR analysis of small molecule antagonists of Gli-SUFU in a Wnt3a luminescent reporter assay.", "type": "functional"}, "[21]": {"experiment": "T. cruzi growth inhibition in host cells, dose response, cell-based, plate reader, dry powder, set 2 (AID 652275)", "type": "functional"}, "[22]": {"experiment": "viability of BHK-21 cells – cell-based, secondary screen, cytotoxicity control for flavivirus guanylyltransferase probe project (AID 624078)", "type": "functional"}, "[23]": {"experiment": "inhibitors of non-replicating M. tuberculosis, dose response, luciferase, dry powder (AID 651619)", "type": "functional", "details": "Mycobacterium tuberculosis"}, "[24]": {"experiment": "inhibitors of non-replicating M. tuberculosis, dose response, luciferase, dry powder (AID 651620)", "type": "functional", "details": "Mycobacterium tuberculosis"}, "[25]": {"experiment": "kidney cell line viability loss – HEK293T, luminescence plate reader, powder samples, set 4, cytotoxicity control, dose response (AID 651863)", "type": "functional, cell-based", "details": "HEK293"}},
  "note": "Values joined by “and” are separate entries in the source; they are usually repeats but may differ in a detail not shown here. Identical values can stand only once. Active and inactive are the calls of the source.",
  "data": [
    {"smiles": "C[C@@H]1CN([C@H](C)CO)C(=O)c2cc(NS(=O)(=O)c3ccccc3)ccc2O[C@@H](C)CCCCO[C@H]1CN(C)Cc1ccc(C(F)(F)F)cc1", "values": [
      {"measurement": "AC50", "setting": "[1]", "result": "5.82 µM (active)"},
      {"measurement": "AC50", "setting": "[2]", "result": "55.1 µM (active)"},
      {"measurement": "AC50", "setting": "[3]", "result": "29.8 µM (active)"},
      {"measurement": "AC50", "setting": "[4]", "result": "15.7 µM (active)"},
      {"measurement": "AC50", "setting": "[5]", "result": "35.8 µM (active)"},
      {"measurement": "AC50", "setting": "[6]", "result": "17.6 µM (active)"}
    ]},
    {"smiles": "CCOc1ccc(S(=O)(=O)NCc2ccncc2)cc1Cl", "values": [
      {"measurement": "AC50", "setting": "[7]", "result": "92.5 nM (active) and 125 nM (active)"},
      {"measurement": "AC50", "setting": "[8]", "result": "> 70 µM (inactive)"}
    ]},
    {"smiles": "C[C@@H]1CCCCO[C@H](CN(C)Cc2ccccc2)[C@H](C)CN([C@H](C)CO)C(=O)c2cc(NC(=O)CCC(F)(F)F)ccc2O1", "values": [
      {"measurement": "AC50", "setting": "[9]", "result": "> 30 µM (inactive)"}
    ]},
    {"smiles": "CCNC(=O)C1(CCOc2ccccc2)CCN(Cc2ccc(O)c(Cl)c2)CC1", "values": [
      {"measurement": "AC50", "setting": "[10]", "result": "> 30 µM (inactive)"}
    ]},
    {"smiles": "C[C@@H]1CN([C@H](C)CO)C(=O)c2cccc(NC(=O)Nc3ccc(C(F)(F)F)cc3)c2O[C@@H]1CN(C)C(=O)Nc1cccc2ccccc12", "values": [
      {"measurement": "AC50", "setting": "[11]", "result": "16.4 µM (active)"},
      {"measurement": "AC50", "setting": "[12]", "result": "19.6 µM (active)"},
      {"measurement": "AC50", "setting": "[13]", "result": "19.4 µM (active)"},
      {"measurement": "AC50", "setting": "[14]", "result": "32.5 µM (active)"},
      {"measurement": "AC50", "setting": "[15]", "result": "29.2 µM (active)"},
      {"measurement": "AC50", "setting": "[16]", "result": "24.3 µM (active)"},
      {"measurement": "AC50", "setting": "[17]", "result": "14.3 µM (active)"},
      {"measurement": "AC50", "setting": "[18]", "result": "7.47 µM (active)"},
      {"measurement": "AC50", "setting": "[19]", "result": "14.8 µM (active)"}
    ]},
    {"smiles": "N#Cc1cccc(C(=O)Nc2cc(N3CCCCC3)ncn2)c1", "values": [
      {"measurement": "IC50", "setting": "[20]", "result": "> 21.8 µM (inactive)"}
    ]},
    {"smiles": "CC(C)N1C[C@H](C)[C@@H](CN(C)Cc2ccc(F)cc2)Oc2c(C(=O)Nc3ccncc3)cccc2C1=O", "values": [
      {"measurement": "AC50", "setting": "[21]", "result": "313 nM (active)"}
    ]},
    {"smiles": "Cc1cc(F)ccc1S(=O)(=O)Nc1cc(SCC(=O)O)c(O)c2ccccc12", "values": [
      {"measurement": "CC50", "setting": "[22]", "result": "10.7 µM (active)"}
    ]},
    {"smiles": "c1ccc(-c2nnc(SCc3cccnc3)o2)cc1", "values": [
      {"measurement": "IC90", "setting": "[23]", "result": "8 µM (active)"},
      {"measurement": "IC90", "setting": "[24]", "result": "8 µM (active)"}
    ]},
    {"smiles": "CC(=O)Nc1cc(NS(=O)(=O)c2c(C)cc(C)cc2C)c2ccccc2c1O", "values": [
      {"measurement": "AC50", "setting": "[25]", "result": "32.3 µM (active)"}
    ]}
  ]
}
